Measurements from patent US20140243332A1, “METHODS OF TREATING CANCERS CHARACTERIZED BY ABERRENT ROS1 ACTIVITY” (Oregon Health & Science University, priority 2013, published 2014).
Where two headings read alike, the source gives them in different places.

Assays:
[1] = biological target: T1, FIG-ROS (Homo sapiens, UniProt P08922); test: Immunoblot of FIG-ROS murine cholangiocarcinoma cell lysates; assay type: cell-based; set-up: expressed in transfected cells; host or cells: murine cholangiocarcinoma tumour cell lines (lines 3 and 4) derived from transduced mouse hepatoblasts; the other entry of the earlier key: GOPC (Q9HD26, Golgi-associated PDZ and coiled-coil motif-containing protein); details: 100 nM, FIG-ROS murine cholangiocarcinoma cells
T1 sequence (P08922 with tags, fused parts or gaps): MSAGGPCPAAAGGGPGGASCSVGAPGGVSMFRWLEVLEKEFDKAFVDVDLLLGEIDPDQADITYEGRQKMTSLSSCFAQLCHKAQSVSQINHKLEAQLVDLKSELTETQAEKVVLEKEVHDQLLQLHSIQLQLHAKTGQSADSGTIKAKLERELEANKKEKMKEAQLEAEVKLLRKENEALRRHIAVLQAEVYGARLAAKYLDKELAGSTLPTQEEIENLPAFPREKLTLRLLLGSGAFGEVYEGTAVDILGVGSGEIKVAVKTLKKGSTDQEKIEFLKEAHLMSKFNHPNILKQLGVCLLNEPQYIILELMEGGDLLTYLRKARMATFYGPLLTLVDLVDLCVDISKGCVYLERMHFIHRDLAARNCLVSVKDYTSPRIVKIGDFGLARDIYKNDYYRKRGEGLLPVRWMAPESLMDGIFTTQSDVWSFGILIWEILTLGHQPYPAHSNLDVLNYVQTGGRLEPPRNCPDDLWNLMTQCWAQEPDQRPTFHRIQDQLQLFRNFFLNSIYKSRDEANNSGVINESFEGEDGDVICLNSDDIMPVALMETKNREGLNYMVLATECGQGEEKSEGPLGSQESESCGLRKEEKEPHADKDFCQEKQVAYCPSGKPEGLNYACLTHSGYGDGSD
Experimental: […]. Images shown are representative of three independent experiments.
(§1) Ba/F3 FIG-ROS, Ba/F3 SLC-ROS, HCC78 and mCC cell lines were treated with the indicated concentration of inhibitors for 1-2 hours. […] The protein content of the cell lysates was determined and lysates were either used for immunoprecipitation where indicated or extracted with SDS Sample buffer for 15 minutes at 80° C. Proteins were transferred to Immobilon-FL membranes and immunoblotted with antibodies specific for phospho-ROS1 (Cell Signaling Technology (CST) #3078), total ROS1 (CST #3266), phopsho-Shp2 (CST #3751), total Shpt (CST #3752), phospho-Stat3 (CST #9145), total Stat3 (CST #4904), phospho-Erk1/2 (CST #9101), total Erk2 (Santa Cruz #SC-1647), phospho-S6 (CST #4858), total S6 (CST #2216), phospho-Src (CST #2105), total Src (CST #2110), α-tubulin (Sigma T6199), or β-actin (Sigma A1978) as indicated. Images of the blots were generated by the LI-COR Odyssey® imaging system, following the manufacturer's protocol for immunoblot detection with use of IR-dye conjugated secondary antibodies.
. The inhibition was dose dependent (FIG. 2B). […].

[2] = biological target: T2, Ba/F3 FIG-ROS cells (Homo sapiens, UniProt P08922); test: Cell viability (MTS) assay, Ba/F3 FIG-ROS; assay type: cell-based
T2 construct: fused on or other part: GFP is co-expressed from an IRES in pMIG and is not fused; Q9HD26 (Golgi-associated PDZ and coiled-coil motif-containing protein)
T2 sequence (P08922 whole entry, change not shown, the tested form may be a part): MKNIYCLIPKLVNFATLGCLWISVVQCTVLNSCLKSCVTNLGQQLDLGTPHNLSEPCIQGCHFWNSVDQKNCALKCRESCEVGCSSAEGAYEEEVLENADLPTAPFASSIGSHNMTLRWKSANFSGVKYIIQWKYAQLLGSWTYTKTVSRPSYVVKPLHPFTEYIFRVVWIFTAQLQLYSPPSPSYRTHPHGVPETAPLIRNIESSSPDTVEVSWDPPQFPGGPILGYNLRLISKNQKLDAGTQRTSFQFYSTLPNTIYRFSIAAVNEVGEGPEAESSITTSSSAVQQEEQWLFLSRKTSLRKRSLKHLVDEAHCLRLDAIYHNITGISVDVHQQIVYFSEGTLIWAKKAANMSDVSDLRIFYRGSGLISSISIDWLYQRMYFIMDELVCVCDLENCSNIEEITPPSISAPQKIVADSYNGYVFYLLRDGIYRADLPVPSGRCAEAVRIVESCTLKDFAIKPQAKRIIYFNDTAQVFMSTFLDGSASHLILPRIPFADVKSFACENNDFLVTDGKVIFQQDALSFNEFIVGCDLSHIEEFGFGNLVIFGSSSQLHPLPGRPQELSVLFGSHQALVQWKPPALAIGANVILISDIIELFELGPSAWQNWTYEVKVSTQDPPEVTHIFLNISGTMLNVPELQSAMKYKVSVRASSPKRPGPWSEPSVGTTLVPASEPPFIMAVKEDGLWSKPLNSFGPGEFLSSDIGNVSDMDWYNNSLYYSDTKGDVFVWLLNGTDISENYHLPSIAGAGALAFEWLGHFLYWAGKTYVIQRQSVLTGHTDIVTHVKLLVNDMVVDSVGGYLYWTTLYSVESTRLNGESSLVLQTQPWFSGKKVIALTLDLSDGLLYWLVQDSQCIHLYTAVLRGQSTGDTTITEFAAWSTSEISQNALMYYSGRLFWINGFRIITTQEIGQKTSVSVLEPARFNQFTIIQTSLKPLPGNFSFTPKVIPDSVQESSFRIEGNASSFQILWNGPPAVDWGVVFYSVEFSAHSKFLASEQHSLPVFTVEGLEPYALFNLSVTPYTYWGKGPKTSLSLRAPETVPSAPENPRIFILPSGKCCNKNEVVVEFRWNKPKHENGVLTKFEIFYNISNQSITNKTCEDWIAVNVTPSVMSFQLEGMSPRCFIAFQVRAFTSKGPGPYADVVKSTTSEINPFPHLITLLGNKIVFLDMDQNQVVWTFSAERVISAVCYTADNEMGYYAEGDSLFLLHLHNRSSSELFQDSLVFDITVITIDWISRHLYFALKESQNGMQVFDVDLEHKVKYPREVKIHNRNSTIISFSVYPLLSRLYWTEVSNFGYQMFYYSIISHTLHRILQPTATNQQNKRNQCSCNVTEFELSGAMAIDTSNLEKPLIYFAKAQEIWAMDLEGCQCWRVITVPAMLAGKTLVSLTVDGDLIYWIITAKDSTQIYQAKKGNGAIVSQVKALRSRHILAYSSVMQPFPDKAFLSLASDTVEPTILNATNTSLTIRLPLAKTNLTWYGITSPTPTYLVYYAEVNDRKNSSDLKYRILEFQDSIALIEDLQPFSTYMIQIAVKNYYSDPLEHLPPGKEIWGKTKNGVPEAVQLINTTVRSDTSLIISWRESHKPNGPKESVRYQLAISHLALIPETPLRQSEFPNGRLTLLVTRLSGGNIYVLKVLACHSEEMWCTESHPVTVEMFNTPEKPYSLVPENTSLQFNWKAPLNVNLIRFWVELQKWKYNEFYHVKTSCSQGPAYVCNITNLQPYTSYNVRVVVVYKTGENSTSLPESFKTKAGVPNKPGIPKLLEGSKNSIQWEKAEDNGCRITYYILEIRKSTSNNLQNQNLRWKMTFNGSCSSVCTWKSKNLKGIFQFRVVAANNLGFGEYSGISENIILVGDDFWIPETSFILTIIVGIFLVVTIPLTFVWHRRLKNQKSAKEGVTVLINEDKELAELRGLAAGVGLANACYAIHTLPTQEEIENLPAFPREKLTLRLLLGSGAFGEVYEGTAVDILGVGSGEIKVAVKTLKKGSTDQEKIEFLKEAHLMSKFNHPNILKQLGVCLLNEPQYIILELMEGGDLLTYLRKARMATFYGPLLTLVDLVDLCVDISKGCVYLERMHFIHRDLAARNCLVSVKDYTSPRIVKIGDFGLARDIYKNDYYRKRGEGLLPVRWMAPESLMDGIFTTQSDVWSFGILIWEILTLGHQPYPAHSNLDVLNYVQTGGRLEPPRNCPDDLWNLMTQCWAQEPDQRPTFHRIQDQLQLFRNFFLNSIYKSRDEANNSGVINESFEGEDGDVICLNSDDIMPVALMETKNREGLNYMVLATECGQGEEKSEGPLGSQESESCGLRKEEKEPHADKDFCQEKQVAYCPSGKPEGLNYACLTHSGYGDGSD
Excerpt: Ba/F3 cell lines were maintained at densities of 0.5×10^6 to 1.5×10^6 per ml of media. FIG-ROS and SLC-ROS Ba/F3 lines were created by infecting the parental Ba/F3 with retrovirus expressing either human FIG-ROS-S (indicated FIG-ROS herein) or SLC-ROS-S (indicated SLC-ROS herein). Stable transfectant lines were sorted for GFP expression on a FACS Aria® flow cytometer. Cells were counted daily using Guava ViaCount® reagent and Guava Personal Cell Analysis® flow cytometer. […] Early passage NIH3T3 cells were infected with retrovirus expressing either FIG-ROS or SLC-ROS and sorted for GFP expression as described above for Ba/F3 cells. […] This media is referred to as RPMI-10% FBS herein.
The FIG-ROS-S (FIG-ROS) fusion protein has been reported in non-small cell lung cancers (NSCLC), glioblastomas, and cholangiocarcinomas.

[3] = biological target: T1, FIG-ROS; test: Immunoblot of Ba/F3 FIG-ROS lysates; assay type: cell-based; set-up: expressed in transfected cells; host or cells: Ba/F3 (A14), retroviral pMSCV-IRES-GFP; the other entry of the earlier key: GOPC (Q9HD26, Golgi-associated PDZ and coiled-coil motif-containing protein); details: Ba/F3 FIG-ROS cells, increasing amounts, immunoblot FIG. 1C
Experimental: FIG. 1C is an image of an immunoblot of lysates of Ba/F3 FIG-ROS and Ba/F3 SLC-ROS and the indicated downstream effectors after treatment with the indicated compounds. Images shown are representative of three independent experiments.
as §1

[4] = test system: HCC78 cells; test: HCC78 cell migration (scratch gap closure); assay type: cell-based, human; details: 50 nM, 18 hours, FIG. 6A
Experimental: FIG. 6A is a set of six images on the left and a bar graph on the right. The images at left are of a gap at 10 minutes and at 18 hours after ‘scratch’ of cells on a surface. […] The right panel is a bar graph depicting the percent of gap closure determined by measuring the length of a straight line drawn across the gap from imaging the same field of view at initiation of treatment and at 18 hours. Scale bar=200 μm

[5] = test system: HCC78 cells; test: HCC78 colony formation; assay type: cell-based, human; details: 10 days, FIG. 1F
Excerpt: FIG. 1F bottom panel is a bar graph depicting the number of colonies observed on the plates from FIG. 1F top panel. Where indicated, **=p<0.01 and ***=p<0.001 by Student's t-test.

[6] = biological target: Ba/F3 FIG-ROS L1982F cells (Homo sapiens, UniProt P08922, L1982F, cells depend on it); test: Cell viability assay, Ba/F3 FIG-ROS L1982F; assay type: cell-based; details: Table 3, Ba/F3 FIG-ROS L1982F; nM; read-out: IC50 (the source's name)
Chain of Ba/F3 FIG-ROS L1982F cells (P08922 whole entry L1982F): as the sequence (P08922 whole entry, change not shown, the tested form may be a part) above, with L1982F counted along it
Experimental: Cell lines were distributed in 96-well plates and incubated with the indicated concentrations of inhibitor for 72 hours. […] Ba/F3 cell lines were plated at 4×10^3 cells/well. HCC78 and mCC cell lines were plated at 1.5×10^3 cells/well. All cell types were seeded in a final volume of 80 microliters. A 20 microliter volume of five-fold concentrated inhibitor media was added. Cell proliferation was measured using a […] viability assay (CellTiter96 Aqueous One® Solution; Promega). A BioTek Synergy 2® plate reader was used to read the absorbance at 490 nm at 30 minutes and 1 hour after addition of MTS. To facilitate comparison between experiments, the raw MTS absorbance of vehicle (0.1% DMSO) treated cells was set to 1 and absorbance from inhibitor treated wells was normalized to the vehicle treated value. […] Data were normalized using Microsoft Excel® and further non-linear regression curve fit analysis of the normalized data for determination of IC50 was performed using Graphpad Prism® software.
The FIG-ROS-S fusion gene was synthesized using the GeneArt® service. FIG-ROS-S is denoted as FIG-ROS herein.

[7] = established, reported in the literature; read-out: steady state maximum plasma concentration Cmax; cited from earlier work

COc1cc2c(Oc3ccc(NC(=O)C4(C(=O)Nc5ccc(F)cc5)CC4)cc3F)ccnc2cc1OCCCN1CCOCC1 [foretinib, N1′-[3-fluoro-4-[[6-methoxy-7-(3-morpholinopropoxy)-4-quinolyl]oxy]phenyl]-N1-(4-fluorophenyl)cyclopropane-1,1-dicarboxamide]
auto-phosphorylation of FIG-ROS and phosphorylation of Shpt and ERK1/2 [1]: almost completely inhibited
GI50 ([2]; Table 3, mutant: None (Ba/F3 FIG-ROS), nM, read-out: IC50 (the source's name)): 2.03 nM
GI50 ([2]; read-out: IC50 (50% growth inhibitory concentration), Ba/F3 FIG-ROS cells, 72 hours, MTS): 2 nM
GI50 ([2]; read-out: IC50 (50% growth inhibitory concentration), Ba/F3 FIG-ROS cells, 72 hours, MTS, listed as Foretinib): 2.2 nM
autophosphorylation of FIG-ROS and ROS1-driven signaling (phospho-Shp2, phospho-ERK1/2) [3]: dose dependent decrease
HCC78 cell migration [4]: more potently inhibited by foretinib than crizotinib
HCC78 colony formation [5]: more potently inhibited by foretinib than crizotinib
GI50 [6]: 15.3 nM
Cmax [7]: 340 nM
